Measurements from patent US20140242093A1, “METHODS AND COMPOSITIONS FOR MODULATING THE INNATE IMMUNE RESPONSE AND/OR MYOGENESIS IN A MAMMALIAN SUBJECT” (FRED HUTCHINSON CANCER RESEARCH CENTER, priority 2011, published 2014).

System: control human primary myoblasts
Assay: Expression microarray of primary myoblasts transduced with lentivirus carrying DUX4-fl, DUX4-s or GFP
Description: Primary human myoblasts were collected and cultured as previously described (Snider et al., 2010). Primary myoblasts were maintained at or below 70% confluency for proliferation. For differentiation, cells were allowed to reach 95-100% confluency in growth medium. Once confluency was reached, the cells were changed to differentiation medium (F10 media supplemented with 1% horse serum, 10 μg/mL insulin, and 10 μg/mL transferrin, penicillin/streptomycin) and maintained for 4 days. Human RD cells were grown in DMEM in 10% bovine calf serum (Hyclone) and penicillin/streptomycin. The primary myoblasts were transduced with lentivirus carrying DUX-fl, DUX4- or GFP (MOI=15).
Expression microarrays were performed on the transduced cells at 24 hours after transduction as follows. […] Samples were analyzed by Illumina Human Whole Genome microarrays. Probe intensities were corrected, normalized, and summarized by the Lumi package of Bioconductor (Du et al., 2008). Differentially expressed genes were identified by the LIMMA package of Bioconductor (Wettenhall and Smyth, 2004). Gene set enrichment analysis (GSEA) was performed using the Bioconductor GOstats package (Falcon and Gentleman, 2007).

Substance: DUX4-fl: full-length DUX4 protein (SEQ ID NO:110), expressed from lentiviral or pCS2 vectors or in vitro translated
- fc of MYPOP (expression array) (Refseq NM_001012643.2): −1.053
- PRAMEF5 expression fc (Refseq NM_001013407.1): 7.35
- HNRNPCL1 expression fc (Refseq NM_001013631.1): 3.484
- RFPL4B expression fc (Refseq NM_001013734.2): 8.34
- ODF3B fc (Refseq NM_001014440.2): −1.1
- DNAJC25 expression fc (Refseq NM_001015882.2): 1.995
- KCNK2 fc (Refseq NM_001017425.2): −1.154
- CCDC58 expression fc (Refseq NM_001017928.2): 2.001
- fc of ATP6AP1L (expression array) (Refseq NM_001017971.1): −1.049
- SH3PXD2B fc (Refseq NM_001017995.1): −1.101
- ZBTB16 expression fc (Refseq NM_001018011.1, cultured human skeletal muscle): −2.037
- fc of SERBP1 (expression array) (Refseq NM_001018069.1): −0.241
- SOD2 expression fc (Refseq NM_001024466.1, cultured human skeletal muscle): −4.617
- fc of RUNX2 (expression array) (Refseq NM_001024630.2): −1.019
- CLK1 expression fc (Refseq NM_001024646.1): 1.84
- fc of TGFBR2 (expression array) (Refseq NM_001024847.1): −1.017
- TSPAN4 fc (Refseq NM_001025235.1): −1.175
- fc of RFX5 (expression array) (Refseq NM_001025603.1): −1.052
- PSRC1 fc (Refseq NM_001032290.1): −1.126
- OAS1 expression fc (Refseq NM_001032409.1, cultured human skeletal muscle): −4.607
- ENTPD8 expression fc (Refseq NM_001033113.1): 4.073
- RHOT1 fc (Refseq NM_001033566.1): −1.074
- CYFIP2 fc (Refseq NM_001037333.1): −1.081
- fc of PHYH (expression array) (Refseq NM_001037537.1): −1.007
- fc of EFEMP1 (expression array) (Refseq NM_001039348.1): −1.03
- PRAMEF10 expression fc (Refseq NM_001039361.1): 6.064
- ETNK1 expression fc (Refseq NM_001039481.1): 1.892
- LOC440053 expression fc (Refseq NM_001039615.1): 3.919
- CBLN3 fc (Refseq NM_001039771.2): −1.144
- HEY1 expression fc (Refseq NM_001040708.1): 2.18
- fc of UHRF1 (expression array) (Refseq NM_001048201.1): −0.2091
- DBNDD2 expression fc (Refseq NM_001048223.1): 2.987
- NCOR2 fc (Refseq NM_001077261.1): −1.177
- fc of NFKB2 (expression array) (Refseq NM_001077493.1): −1.011
- fc of SLC29A1 (expression array) (Refseq NM_001078174.1): −0.5111
- DYNC2H1 expression fc (Refseq NM_001080463.1): 3.721
- PRAMEF12 expression fc (Refseq NM_001080830.1): 7.802
- FRG2B expression fc (Refseq NM_001080998.1): 1.993
- DEFB103A expression fc (Refseq NM_001081551.2): 6.442
- CPSF4 fc (Refseq NM_001081559.1): −1.171
- fc of GPD2 (expression array) (Refseq NM_001083112.1): −0.3652
- fc of GPR1 (expression array) (Refseq NM_001098199.1): −1.054
- HLA-F expression fc (Refseq NM_001098479.1, cultured human skeletal muscle): −1.932
- RFPL3 expression fc (Refseq NM_001098535.1): 8.144
- PRR4 expression fc (Refseq NM_001098538.1): 3.562
- FAM156B fc (Refseq NM_001099684.1): −1.113
- PRAMEF19 expression fc (Refseq NM_001099790.1): 2.336
- PRAMEF20 expression fc (Refseq NM_001099852.1): 4.795
- PRAMEF14 expression fc (Refseq NM_001099854.1): 3.186
- PRAMEF21 expression fc (Refseq NM_001100114.1): 2.487
- LOC729384 expression fc (Refseq NM_001105522.1): 6.832
- KHDC1L expression fc (Refseq NM_001126063.2): 8.012
- CSAG3 expression fc (Refseq NM_001129826.1): 5.871
- LOC399940 expression fc (Refseq NM_001136118.1): 4.727
- LOC440563 expression fc (Refseq NM_001136561.1): 5.312
- FAM90A7 expression fc (Refseq NM_001136572.1): 3.199
- CYCSL1 expression fc (Refseq NR_001561.1): 2.506
- MGC10997 expression fc (Refseq NR_001565.1): 2.426
- FTHL3 expression fc (Refseq NR_002201.1, cultured human skeletal muscle): −2.577
- FTHL11 expression fc (Refseq NR_002204.1, cultured human skeletal muscle): −2.085
- FTHL12 expression fc (Refseq NR_002205.1, cultured human skeletal muscle): −1.948
- RPPH1 expression fc (Refseq NR_002312.1): 2.037
- RFPL1S expression fc (Refseq NR_002727.1): 8.396
- SNORD56 expression fc (Refseq NR_002739.1): 1.855
- fc of TRIM78P (expression array) (Refseq NR_002777.2): −0.9991
- HNRPA1L-2 expression fc (Refseq NR_002944.2): 1.921
- RMRP expression fc (Refseq NR_003051.2): 2.267
- fc of LOC400759 (expression array) (Refseq NR_003133.1): −0.7622
- HNRPDL expression fc (Refseq NR_003249.1): 2.175
- SDHALP1 expression fc (Refseq NR_003264.1): 3.276
- RN5S9 expression fc (Refseq NR_023371.1): 4.191
- KIAA0114 expression fc (Refseq NR_024031.1): 1.841
- NCRNA00092 expression fc (Refseq NR_024129.1): 2.395
- MIR503 expression fc (Refseq NR_030228.1): 1.91
- MIR2278 expression fc (Refseq NR_031755.1): 2.412
- USP41 fc (Refseq XM_036729.5): −1.127
- TRIM64 expression fc (Refseq XM_061890.11): 4.943
- LOC136157 expression fc (Refseq XM_069743.3): 8.299
- LOC196120 expression fc (Refseq XM_114987.3): 8.179
- LOC646066 expression fc (Refseq XM_116384.2): 4.391
